Results reported in patent US10836789B2, “Inhibitors of glucocorticoid receptor” (ORIC Pharmaceuticals, Inc., priority 2016, dated 2020).
pIC50: −log10 of the molar value.

Columns and labels:
[1] = tested on: AR; experiment: AR agonism assay in LNAR reporter cell line; format: cell-based; settings: LNAR cells (overexpressed AR, 4XARE-Luc), 10% CSS, 18-24 hrs; Mifepristone maximum response set to 1
Experimental: Example B: In Vitro AR Agonism Assay
The AR agonism assay was done in the LNAR reporter cell line which has overexpressed AR and 4XARE-Luc genes. This cell line is sensitive to even minor partial AR agonism activity in hormone-deprived media (CSS). The assays were done in RPMI (without phenol red)+10% CSS using 6000 LNAR cells/well in 384-well plates and compounds were incubated with cells in […] incubator for 18-24 hrs. OneGlo reagent (25 uL/well) was added and plates were read with luminometer within 3 minutes.
To gauge the AR partial agonism activity, Mifepristone is included as a standard in the assay. AR agonism assay results are quantified by determining the ratio of the maximum response of individual compounds to the maximum response of Mifepristone (arbitrarily set to 1). Values of Table 4 are reported as Relative Maximum Response to Mifepristone. This general trend of AR agonism was shown for the class of compounds described herein.

[2] = biological target: T1, GR (Homo sapiens, UniProt P04150); experiment: GR luciferase antagonist assay (CHO/GR/MMTV Luciferase cells); format: cell-based; settings: 10 nM Dexamethasone final, 16-18 h
T1 construct: expressed in transfected cells; host or cells: CHO cells carrying GR and an MMTV-luciferase reporter
T1 sequence (P04150 1-777): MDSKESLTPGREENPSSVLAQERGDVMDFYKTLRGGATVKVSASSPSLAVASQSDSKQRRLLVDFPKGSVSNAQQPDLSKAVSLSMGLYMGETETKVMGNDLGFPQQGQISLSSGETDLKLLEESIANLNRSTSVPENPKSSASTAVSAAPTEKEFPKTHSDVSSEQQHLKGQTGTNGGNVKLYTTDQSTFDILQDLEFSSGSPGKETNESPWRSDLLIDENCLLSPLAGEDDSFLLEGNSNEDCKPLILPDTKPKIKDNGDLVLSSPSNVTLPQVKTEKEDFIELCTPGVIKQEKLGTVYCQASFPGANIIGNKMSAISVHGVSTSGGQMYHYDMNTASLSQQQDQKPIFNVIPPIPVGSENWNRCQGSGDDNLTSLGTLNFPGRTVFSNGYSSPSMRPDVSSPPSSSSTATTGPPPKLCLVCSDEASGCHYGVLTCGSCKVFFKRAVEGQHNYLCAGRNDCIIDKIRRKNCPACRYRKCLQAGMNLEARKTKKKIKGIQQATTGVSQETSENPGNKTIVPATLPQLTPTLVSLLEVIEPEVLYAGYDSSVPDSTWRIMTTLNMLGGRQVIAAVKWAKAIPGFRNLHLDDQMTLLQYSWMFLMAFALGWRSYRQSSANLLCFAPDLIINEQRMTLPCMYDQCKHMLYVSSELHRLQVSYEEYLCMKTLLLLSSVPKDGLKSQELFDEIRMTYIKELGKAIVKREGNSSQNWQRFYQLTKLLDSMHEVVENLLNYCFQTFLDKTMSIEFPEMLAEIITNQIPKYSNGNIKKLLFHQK
Experimental: Example A: […] GR Luciferase Assay Cell Line: CHO/GR/MMTV Luciferase Culture Media: DMEM (with phenol red)+10% FBS Assay Media: DMEM (without phenol red)+10% CSS A 1×10 cm plate of cells was split into 2×15 cm plates in Assay Media (CSS). After 4 days, the cells in the Assay Media were collected and counted. Antagonist Assay: 1.5×10^4 cells per well were plated in a 384-well white walled TC plate in 20 ul of Assay Media containing 12.5 nM Dexamethasone (final concentration=10 nM). The plates were covered with film to avoid evaporation and placed in a TC incubator. Media/drug dilutions were prepared in Assay Media in 96-well sterile plates. 100 ul of Assay Media was distributed in aliquots into 96-well plates with an 8-Channel pipette (20-200 ul). 0.5 ul of 1000× concentration of compounds were added to the plates with 8-Channel pipette (0.5-10 ul). The plates were shaken for 15 seconds to mix. The film was removed from the 384-well plates with assay cells. 5 ul of media/drug dilutions were added to appropriate wells. The plates were covered with film to avoid evaporation and placed in a TC incubator overnight. After 16-18 h in the incubator, the plates were removed and sat at room temperature for 10 minutes to equilibrate. The Reagent Dispenser was setup to distribute 25 ul aliquots of OneGlo Luciferase Reagent (at room temperature) to each well of the 384-well plate using standard cassette. After OneGlo was added to the plates, the plates were shaken briefly, then incubated in the dark at room temperature for about 3 minutes. The plates were read using a Tecan or Promega luminometer. The ability of the compounds disclosed herein to inhibit GR activity was quantified and the respective IC50 value was determined. Table 3 provides the cellular IC50 values of various substituted steroidal compounds disclosed herein.

Compound	Relative Maximum Response to Mifepristone [1]	pIC50 [2]
CC(C)N(C)c1ccc([C@H]2C[C@@]3(C)[C@@H](CC[C@@]3(O)C#CC(C)(C)C)[C@@H]3CCC4=CC(=O)CC[C@@H]4[C@H]32)cc1 [Compound 2, (8R,9S,10R,11S,13S,14S,17S)-17-(3,3-Dimethylbut-1-yn-1-yl)-17-hydroxy-11-(4-(isopropyl(methyl)amino)phenyl)-13-methyl-1,2,6,7,8,9,10,11,12,13,14,15,16,17-tetradecahydro-3H-cyclopenta[a]phenanthren-3-one]	A (A: ≤ 0.4)	≥ 7.00
COC(C)(C)C#C[C@]1(O)CC[C@H]2[C@@H]3CCC4=CC(=O)CC[C@@H]4[C@H]3[C@@H](c3ccc(N(C)C(C)C)cc3)C[C@@]21C [Compound 4, (8R,9S,10R,11S,13S,14S,17S)-17-Hydroxy-11-(4-(isopropyl(methyl)amino)phenyl)-17-(3-methoxy-3-methylbut-1-yn-1-yl)-13-methyl-1,2,6,7,8,9,10,11,12,13,14,15,16,17-tetradecahydro-3H-cyclopenta[a]phenanthren-3-one]	A (A: ≤ 0.4)	≥ 7.00
CCC(C)(C)C#C[C@]1(O)CC[C@H]2[C@@H]3CCC4=CC(=O)CC[C@@H]4[C@H]3[C@@H](c3ccc(N(C)C)cc3)C[C@@]21C [Compound 6, (8R,9S,10R,11S,13S,14S,17S)-11-(4-(Dimethylamino)phenyl)-17-(3,3-dimethylpent-1-yn-1-yl)-17-hydroxy-13-methyl-1,2,6,7,8,9,10,11,12,13,14,15,16,17-tetradecahydro-3H-cyclopenta[a]phenanthren-3-one]	A (A: ≤ 0.4)	≥ 7.00
CC(C)(C)C#C[C@]1(O)CC[C@H]2[C@@H]3CCC4=CC(=O)CC[C@@H]4[C@H]3[C@@H](c3ccc(N4CCOCC4)cc3)C[C@@]21C [Compound 7, (8R,9S,10R,11S,13S,14S,17S)-17-(3,3-Dimethylbut-1-yn-1-yl)-17-hydroxy-13-methyl-11-(4-morpholinophenyl)-1,2,6,7,8,9,10,11,12,13,14,15,16,17-tetradecahydro-3H-cyclopenta[a]phenanthren-3-one]	A (A: ≤ 0.4)	≥ 7.00
CC(C)Nc1ccc([C@H]2C[C@@]3(C)[C@@H](CC[C@@]3(O)C#CC(C)(C)C)[C@@H]3CCC4=CC(=O)CC[C@@H]4[C@H]32)cc1 [Compound 10, (8R,9S,10R,11S,13S,14S,17S)-17-(3,3-Dimethylbut-1-yn-1-yl)-17-hydroxy-11-(4-(isopropylamino)phenyl)-13-methyl-1,2,6,7,8,9,10,11,12,13,14,15,16,17-tetradecahydro-3H-cyclopenta[a]phenanthren-3-one]	A (A: ≤ 0.4)	≥ 7.00
CN(c1ccc([C@H]2C[C@@]3(C)[C@@H](CC[C@@]3(O)C#CC(C)(C)C)[C@@H]3CCC4=CC(=O)CC[C@@H]4[C@H]32)cc1)C(C)(C)C [Compound 11, (8R,9S,10R,11S,13S,14S,17S)-11-(4-(tert-Butyl(methyl)amino)phenyl)-17-(3,3-dimethylbut-1-yn-1-yl)-17-hydroxy-13-methyl-1,2,6,7,8,9,10,11,12,13,14,15,16,17-tetradecahydro-3H-cyclopenta[a]phenanthren-3-one]	A (A: ≤ 0.4)	≥ 7.00
CC(C)Nc1ccc([C@H]2C[C@@]3(C)[C@@H](CC[C@@]3(O)C#CC(C)(C)C)[C@@H]3CCC4=CC(=O)CC[C@@H]4[C@H]32)cc1F [Compound 14, (8R,9S,10R,11S,13S,14S,17S)-17-(3,3-dimethylbut-1-yn-1-yl)-11-(3-fluoro-4-(isopropylamino)phenyl)-17-hydroxy-13-methyl-1,2,6,7,8,9,10,11,12,13,14,15,16,17-tetradecahydro-3H-cyclopenta[a]phenanthren-3-one]	A (A: ≤ 0.4)	< 7.00
COCC#C[C@]1(O)CC[C@H]2[C@@H]3CCC4=CC(=O)CC[C@]4(C)[C@H]3[C@@H](c3ccc(N(C)C)cc3)C[C@@]21C [Compound 17, (8S,9R,10R,11S,13S,14S,17S)-11-(4-(Dimethylamino)phenyl)-17-hydroxy-17-(3-methoxyprop-1-yn-1-yl)-10,13-dimethyl-1,2,6,7,8,9,10,11,12,13,14,15,16,17-tetradecahydro-3H-cyclopenta[a]phenanthren-3-one]	A (A: ≤ 0.4)	< 7.00
CC(C)Nc1ccc([C@H]2C[C@@]3(C)[C@@H](CC[C@@]3(O)C#CC3CC3)[C@@H]3CCC4=CC(=O)CC[C@]4(C)[C@H]32)cc1 [Compound 18]	A (A: ≤ 0.4)	≥ 7.00
CC#C[C@]1(O)CC[C@H]2[C@@H]3CCC4=CC(=O)CC[C@]4(C)[C@H]3[C@@H](c3ccc(N(C)C(C)C)cc3)C[C@@]21C [Compound 19]	A (A: ≤ 0.4)	< 7.00
CN1CCN(c2ccc([C@H]3C[C@@]4(C)[C@@H](CC[C@@]4(O)C#CC(C)(C)C)[C@@H]4CCC5=CC(=O)CC[C@@H]5[C@H]43)cc2)CC1 [Compound 20]	A (A: ≤ 0.4)	≥ 7.00
CC(C)N(C)c1ccc([C@H]2C[C@@]3(C)[C@@H](CC[C@@]3(O)C#CC3CC3)[C@@H]3CCC4=CC(=O)CC[C@]4(C)[C@H]32)cc1 [Compound 21, (8S,9R,10R,11S,13S,14S,17S)-17-(Cyclopropylethynyl)-17-hydroxy-11-(4-(isopropyl(methyl)amino)phenyl)-10,13-dimethyl-1,2,6,7,8,9,10,11,12,13,14,15,16,17-tetradecahydro-3H-cyclopenta[a]phenanthren-3-one]	A (A: ≤ 0.4)	≥ 7.00
CC(C)(C)C#C[C@]1(O)CC[C@H]2[C@@H]3CCC4=CC(=O)CC[C@@H]4[C@H]3[C@@H](c3ccc(N4CCS(=O)(=O)CC4)cc3)C[C@@]21C [Compound 22]	A (A: ≤ 0.4)	≥ 7.00
CC(C)(C)C#C[C@]1(O)CC[C@H]2[C@@H]3CCC4=CC(=O)CC[C@@H]4[C@H]3[C@@H](c3ccc(N4CCN(C(=O)OC(C)(C)C)CC4)cc3)C[C@@]21C [Compound 25]	A (A: ≤ 0.4)	≥ 7.00
CC#C[C@]1(O)CC[C@H]2[C@@H]3CCC4=CC(=O)CC[C@]4(C)[C@H]3[C@@H](c3ccc(N(C)C)c(F)c3)C[C@@]21C [Compound 32]	A (A: ≤ 0.4)	< 7.00
